The text below walks through data of ChEMBL document CHEMBL5390225, “Discovery and structural optimization of a new series of N-acyl-2-aminobenzothiazole as inhibitors of Zika virus” (Bioorg Med Chem, 2023).

The test system of one data set is BHK-21. The experiment in a line: Cytotoxicity against golden hamster BHK21-RepZIKV_IRES-Neo cells assessed as reduction in cell viability measured after 72 hrs by MTT assay. It is filed as toxicity, cell-based, Mesocricetus auratus. The note with it: bhk-21, 72 h. On the technique in general: Formazan colour is commonly taken as a measure of viable cells.
The subject of data set [1] is Zika virus. The experiment in a line: Inhibition of Zika virus BeH823339 NS2B protease (49 to 95 residues) R96A mutant/NS3 protease (1 to 170 residues) R29G/ C80S/C143S mutant expressed in Escherichia coli BL21 (DE3) cells using Bz-Nle-Lys-Lys-Arg-AMC as a fluorogenic substrate at 100 uM preincubated with enzyme for 10 mins by fluorescence-based analysis relative to control.

The target in the next data set is Nonstructural protein 3 (Zika virus, UniProt A0A024AXB9). The experiment in a line: Inhibition of N-terminal His-tagged Zika virus NS2B protease (46 to 99 residues)/NS3 protease (1 to 187 residues) expressed in Escherichia coli Rosetta2(DE3) cells using Boc-Gly-Arg-Arg-AMC as substrate preincubated with enzyme for 10 mins followed by substrate addition and measured for 10 mins by fluorescence based analysis.

A short description of data set [2]: Cytotoxicity against African green monkey Vero E6 cells assessed as cell viability at 2 uM measured after 72 hrs by MTT assay relative to control. It is filed as toxicity, cell-based, Vero C1008. Particulars: chlorocebus sabaeus, read-out: Activity.
Data set [3] concerns Zika virus. The experiment in a line: Inhibition of Zika virus BeH823339 NS2B protease (49 to 95 residues) R96A mutant/NS3 protease (1 to 170 residues) R29G/ C80S/C143S mutant expressed in Escherichia coli BL21 (DE3) cells using Bz-Nle-Lys-Lys-Arg-AMC as a fluorogenic substrate at 100 uM by fluorescence-based analysis relative to control.
A short description of data set [4]: Selectivity index, ratio of CC50 for cytotoxicity against African green monkey Vero E6 cells to EC50 for antiviral activity against Zika virus PE243 infected in African green monkey Vero E6 cells. It is filed as toxicity, cell-based, Vero C1008. Particulars: read-out: Ratio CC50/EC50.
In data set [5] the test system is Zika virus. In words: Antiviral activity against Zika virus PE243 infected in African green monkey Vero E6 cells assessed as inhibition of viral replication at 10 uM incubated for 72 hrs by immunofluorescence analysis. It is filed as functional. The note with it: PE243, Vero C1008.
Data set [6] in a line: Cytotoxicity against African green monkey Vero E6 cells assessed as reduction in cell viability measured after 72 hrs by MTT assay. It is filed as toxicity, cell-based, Vero C1008. Particulars: chlorocebus sabaeus.
Data set [7] concerns Zika virus. The experiment in a line: Antiviral activity against Zika virus infected in golden hamster BHK21-RepZIKV_IRES-Neo cells assessed as inhibition of viral replication by measuring reduction in renilla luciferase expression at 10 uM measured after 72 hrs by luciferase reporter gene assay relative to control. It is filed as functional, Mesocricetus auratus. Particulars: BHK-21. Background: In a reporter assay the amount or activity of a reporter protein is the signal.

The nature of data set [8]: Cytotoxicity against African green monkey Vero E6 cells assessed as cell viability at 10 uM measured after 72 hrs by MTT assay relative to control. Particulars: chlorocebus sabaeus, read-out: Activity. It is filed as toxicity, cell-based, Vero C1008.
Data set [9] relates to Zika virus. The experiment in a line: Antiviral activity against Zika virus PE243 infected in African green monkey Vero E6 cells assessed as inhibition of viral replication at 2 uM incubated for 72 hrs by immunofluorescence analysis. It is filed as functional. The note with it: PE243, Vero C1008.
The subject of data set [10] is Zika virus. In words: Antiviral activity against Zika virus PE243 infected in African green monkey Vero E6 cells assessed as inhibition of viral replication incubated for 72 hrs by immunofluorescence analysis. It is filed as functional, organism-based. Particulars: PE243, Vero C1008, 72 h.
Data set [11] has as its target Cruzipain (Trypanosoma cruzi) (UniProt P25779). In words: Inhibition of recombinant Trypanosoma cruzi Cruzain using Z-Phe-Arg-AMC as fluorogenic substrate at 12.5 uM preincubated with enzyme for 10 mins by fluorescence-based analysis relative to control.
The test system of data set [12] is Zika virus. In words: Inhibition of Zika virus BeH823339 NS2B protease (49 to 95 residues) R96A mutant/NS3 protease (1 to 170 residues) R29G/ C80S/C143S mutant expressed in Escherichia coli BL21 (DE3) cells using Bz-Nle-Lys-Lys-Arg-AMC as a fluorogenic substrate at 12.5 uM preincubated with 0.2 nM enzyme for 10 mins by fluorescence-based analysis relative to control.

Data set [13] relates to Zika virus. In words: Inhibition of Zika virus BeH823339 NS2B protease (49 to 95 residues) R96A mutant/NS3 protease (1 to 170 residues) R29G/ C80S/C143S mutant expressed in Escherichia coli BL21 (DE3) cells using Bz-Nle-Lys-Lys-Arg-AMC as a fluorogenic substrate at 100 uM preincubated with enzyme for 10 mins in presence of 0.001% TritonX-100 by fluorescence-based analysis.

The test system of data set [14] is Zika virus. In words: Non-competitive inhibition of Zika virus BeH823339 NS2B protease (49 to 95 residues) R96A mutant/NS3 protease (1 to 170 residues) R29G/ C80S/C143S mutant expressed in Escherichia coli BL21 (DE3) cells using 5.5 to 88 uM of Bz-Nle-Lys-Lys-Arg-AMC as a fluorogenic substrate at compound concentration close to IC50 preincubated with enzyme for 10 mins by fluorescence-based analysis relative to control.

Data set [15] has as its system Zika virus. In words: Inhibition of Zika virus BeH823339 NS2B protease (49 to 95 residues) R96A mutant/NS3 protease (1 to 170 residues) R29G/ C80S/C143S mutant expressed in Escherichia coli BL21 (DE3) cells using Bz-Nle-Lys-Lys-Arg-AMC as a fluorogenic substrate at 10 uM preincubated with enzyme for 10 mins in presence of BSA by fluorescence-based analysis relative to control.

Data set [16] in a line: Inhibition of Zika virus BeH823339 NS2B protease (49 to 95 residues) R96A mutant/NS3 protease (1 to 170 residues) R29G/ C80S/C143S mutant expressed in Escherichia coli BL21 (DE3) cells using Bz-Nle-Lys-Lys-Arg-AMC as a fluorogenic substrate preincubated with enzyme for 10 mins by fluorescence-based analysis.
The test system of data set [17] is Zika virus. In words: Inhibition of Zika virus BeH823339 NS2B protease (49 to 95 residues) R96A mutant/NS3 protease (1 to 170 residues) R29G/ C80S/C143S mutant expressed in Escherichia coli BL21 (DE3) cells using Bz-Nle-Lys-Lys-Arg-AMC as a fluorogenic substrate at 12.5 uM preincubated with 2 nM enzyme for 10 mins by fluorescence-based analysis relative to control.

Cruzipain (Trypanosoma cruzi), sequence (P25779 123-467 limits assumed): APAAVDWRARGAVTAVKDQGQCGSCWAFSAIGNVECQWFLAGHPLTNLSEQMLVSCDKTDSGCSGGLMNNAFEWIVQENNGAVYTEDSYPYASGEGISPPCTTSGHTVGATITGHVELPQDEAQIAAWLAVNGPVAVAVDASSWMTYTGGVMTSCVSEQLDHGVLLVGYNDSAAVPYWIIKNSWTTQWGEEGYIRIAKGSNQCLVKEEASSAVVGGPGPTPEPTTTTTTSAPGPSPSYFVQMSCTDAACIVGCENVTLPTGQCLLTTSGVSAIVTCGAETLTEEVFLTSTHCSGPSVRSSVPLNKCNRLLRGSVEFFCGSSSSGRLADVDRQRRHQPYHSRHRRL
Nonstructural protein 3, sequence (A0A024AXB9 whole entry, the tested form may be a part): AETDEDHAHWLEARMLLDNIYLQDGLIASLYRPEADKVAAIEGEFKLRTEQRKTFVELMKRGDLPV

In general, inhibition refers to the change of the read-out against control, counted positive when it falls. As a reminder, the IC50 is the concentration needed to halve the response being measured. A word on the CC50: it is the concentration giving 50% cytotoxicity. By EC50 is commonly meant the concentration at which the effect is half-maximal. `COc1ccc(S(=O)(=O)Nc2ccc(C(=O)Nc3nc4ccccc4s3)cc2)cc1`: in the data set with BHK-21, the Activity result is reported as “Non-Toxic”. The inhibition with Zika virus [1] stood at 32%; with Zika virus [3], 38%. Further, the IC50 against Nonstructural protein 3 is 5.2 µM. Moreover, the viability at 72 h, 2 µM in [2] amounted to 88.7%. In addition, in data set [4], the selectivity ratio was 1.2. Further, the inhibition at 10 µM worked out at 74.4% in the data set on Zika virus [5] and 63.4% in the data set with Zika virus [7]. In addition, in [6], the cytotoxic concentration (CC50) at 72 h amounted to 13.3 µM. Also, the viability at 72 h, 10 µM in data set [8] was determined as 94.8%. In the data set on Zika virus [9], the inhibition at 2 µM is 10.8%. The EC50 with Zika virus [10] was determined as 11.1 µM.
For the compound `O=C(Nc1nc2ccccc2s1)c1ccc(NC(=S)Nc2ccccc2)cc1`, the inhibition in the data set with Zika virus [1] came to 99%; in data set [11], 72%; in the data set on Zika virus [3], 46%; in the data set on Zika virus [12] it was 15%; in the data set with Zika virus [13], 46%; in the data set on Zika virus [14] it was 25%. Moreover, the inhibition with Zika virus [15] is 12%; in the data set with Zika virus [17], 9%. Moreover, in data set [2], the viability at 72 h, 2 µM stood at 96%. Also, the inhibition at 10 µM with Zika virus [5] was found to be 73.6%. Besides, half-maximal inhibition in data set [16] (IC50) required 8 µM. Besides, in data set [8], the viability at 72 h, 10 µM is 29%. Besides, in the data set with Zika virus [9], the inhibition at 2 µM came out at 9.4%.
